Experimental data taken from patent publication US7880007B2, “Bicyclic substituted phenyl piperidine modulators of muscarinic receptors” (Vertex Pharmaceuticals Incorporated, priority 2004, dated 2011).

Tests used:
Type in all cases: cell-based
M2 muscarinic receptor = target: T1, M2 muscarinic receptor (Homo sapiens, UniProt P08172); assay: Functional mobilization of intracellular calcium (FLIPR), M2-CHO cells; settings: for M2 Activity: M2-CHO cells, calcium mobilization (FLIPR)
T1 construct: expressed in transfected cells; host or cells: CHO (M2-CHO)
T1 sequence (P08172 1-466): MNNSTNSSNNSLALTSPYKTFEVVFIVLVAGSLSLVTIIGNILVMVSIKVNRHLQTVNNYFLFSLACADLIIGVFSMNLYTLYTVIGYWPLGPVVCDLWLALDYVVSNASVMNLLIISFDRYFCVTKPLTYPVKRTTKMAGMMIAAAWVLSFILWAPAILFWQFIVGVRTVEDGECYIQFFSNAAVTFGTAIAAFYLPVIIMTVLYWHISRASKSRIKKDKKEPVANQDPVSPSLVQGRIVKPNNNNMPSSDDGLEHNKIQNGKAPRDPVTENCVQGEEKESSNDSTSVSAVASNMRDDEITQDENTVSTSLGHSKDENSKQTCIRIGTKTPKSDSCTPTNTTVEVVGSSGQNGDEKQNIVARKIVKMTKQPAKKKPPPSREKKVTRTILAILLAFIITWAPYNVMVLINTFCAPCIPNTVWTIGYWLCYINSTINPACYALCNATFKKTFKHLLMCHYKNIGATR
How it was run: (§1)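 Calcium mobilisation read by FLIPR over 60 s (ex 488/em 540 nm) in recombinant muscarinic CHO lines loaded with calcium dye plus 1 mM probenecid. Compounds tested as agonists alone, or as inhibitors against EC80 carbachol after 15 min pre-incubation or co-addition; 0.5% DMSO; efficacy scaled to carbachol maximal response.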

M4 muscarinic receptor = target: T2, M4 muscarinic receptor (Homo sapiens, UniProt P08173); assay: Functional mobilization of intracellular calcium (FLIPR), M4-CHO cells; settings: for M4 Activity: M4-CHO cells, calcium mobilization (FLIPR)
T2 construct: expressed in transfected cells; host or cells: CHO (M4-CHO)
T2 sequence (P08173 1-479): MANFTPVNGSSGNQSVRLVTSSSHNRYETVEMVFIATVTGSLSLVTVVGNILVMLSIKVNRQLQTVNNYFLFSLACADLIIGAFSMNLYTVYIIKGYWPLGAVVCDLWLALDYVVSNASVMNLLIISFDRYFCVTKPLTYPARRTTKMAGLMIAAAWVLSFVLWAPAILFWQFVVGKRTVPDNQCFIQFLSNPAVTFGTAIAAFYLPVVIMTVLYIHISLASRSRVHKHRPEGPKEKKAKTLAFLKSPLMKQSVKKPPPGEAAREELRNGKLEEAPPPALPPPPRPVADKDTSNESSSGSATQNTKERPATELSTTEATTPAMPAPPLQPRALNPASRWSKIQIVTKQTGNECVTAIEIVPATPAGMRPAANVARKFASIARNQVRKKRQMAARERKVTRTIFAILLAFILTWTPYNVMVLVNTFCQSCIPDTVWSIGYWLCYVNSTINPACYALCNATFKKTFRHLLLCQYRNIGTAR
How it was run: as §1

M1 muscarinic receptor = target: T3, M1 muscarinic receptor (Homo sapiens, UniProt P11229); assay: Functional mobilization of intracellular calcium (FLIPR), M1-CHO cells; settings: for M1 Activity: M1-CHO cells, calcium mobilization (FLIPR)
T3 construct: expressed in transfected cells; host or cells: CHO (M1-CHO)
T3 sequence (P11229 1-460): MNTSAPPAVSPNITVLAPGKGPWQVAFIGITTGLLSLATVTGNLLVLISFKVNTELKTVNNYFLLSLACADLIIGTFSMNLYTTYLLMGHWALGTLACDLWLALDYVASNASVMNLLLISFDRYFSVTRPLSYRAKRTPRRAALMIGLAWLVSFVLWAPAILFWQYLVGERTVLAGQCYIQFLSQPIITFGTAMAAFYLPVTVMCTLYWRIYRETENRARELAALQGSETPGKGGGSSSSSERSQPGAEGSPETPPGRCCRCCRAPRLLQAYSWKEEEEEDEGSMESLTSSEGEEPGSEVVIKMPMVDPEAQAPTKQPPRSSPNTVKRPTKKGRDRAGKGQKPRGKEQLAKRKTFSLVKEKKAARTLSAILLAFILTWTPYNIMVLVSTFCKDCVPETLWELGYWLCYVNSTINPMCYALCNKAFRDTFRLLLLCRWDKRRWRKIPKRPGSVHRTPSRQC
How it was run: as §1

[1] = 100% efficacy = maximum response obtained with the Carbachol control
[2] = 100% efficacy is the maximum response obtained with the Carbachol control

Compound	Emax (M2 muscarinic receptor; [1]) [%]	M2 Activity (M2 muscarinic receptor)	Emax (M4 muscarinic receptor; [1]) [%]	M4 Activity (M4 muscarinic receptor)	Emax (M1 muscarinic receptor; [1]) [%]	M1 Activity (M1 muscarinic receptor)	Emax (M2 muscarinic receptor; [2]) [%]	Emax (M4 muscarinic receptor; [2]) [%]	Emax (M1 muscarinic receptor; [2]) [%]
COc1ccccc1C1CCN(C2CC3CCC2O3)CC1 (stereo not drawn) [Compound 312]	< 25	+ (activity was measured to be greater than 5.0 μM)	< 25	+ (activity was measured to be greater than 5.0 μM)	< 25	+ (activity was measured to be greater than 5.0 μM)	–	–	–
Cc1ccc(Cl)cc1C1CCN(CC2C[C@H]3CC[C@H]2C3)CC1 (stereo partly drawn) [Compound 315]	25 to 100	+ (activity was measured to be greater than 5.0 μM)	25 to 100	+++ (activity was measured to be less than 1.0 μM)	25 to 100	+ (activity was measured to be greater than 5.0 μM)	–	–	–
CCCC1CCC(N2CCC(OC)(c3cc(Cl)ccc3OC)CC2)CC1 (stereo not drawn) [Compound 316]	< 25	+ (activity was measured to be greater than 5.0 μM)	25 to 100	++ (activity was measured to be from 1.0 μM to 5.0 μM)	25 to 100	++ (activity was measured to be from 1.0 μM to 5.0 μM)	–	–	–
COc1ccc(Cl)cc1C1(O)CCN(C[C@@H]2C[C@H]3C=C[C@H]2C3)CC1 [Compound 319]	< 25	+ (activity was measured to be greater than 5.0 μM)	25 to 100	++ (activity was measured to be from 1.0 μM to 5.0 μM)	< 25	+ (activity was measured to be greater than 5.0 μM)	–	–	–
CCCC1CCC(N2CCC(C#N)(c3ccccc3OC)CC2)CC1 (stereo not drawn) [Compound 335]	< 25	+ (activity was measured to be greater than 5.0 μM)	25 to 100	++ (activity was measured to be from 1.0 μM to 5.0 μM)	25 to 100	++ (activity was measured to be from 1.0 μM to 5.0 μM)	–	–	–
CCOC(=O)N1[C@@H]2CC[C@@H]1CC(N1CCC(c3cc(NC(C)=O)ccc3OC)CC1)C2 (stereo partly drawn) [Compound 338]	< 25	–	25 to 100	–	25 to 100	–	–	–	–
COc1ccc(OC)c(C2CCN(CC3C[C@H]4CC[C@H]3C4)CC2)c1 (stereo partly drawn) [Compound 344]	< 25	+ (activity was measured to be greater than 5.0 μM)	25 to 100	++ (activity was measured to be from 1.0 μM to 5.0 μM)	< 25	+ (activity was measured to be greater than 5.0 μM)	–	–	–
COc1ccccc1C1(C#N)CCN(C2CCCCC2)CC1 [Compound 348]	< 25	+ (activity was measured to be greater than 5.0 μM)	25 to 100	++ (activity was measured to be from 1.0 μM to 5.0 μM)	25 to 100	+ (activity was measured to be greater than 5.0 μM)	–	–	–
COc1ccccc1C1(C#N)CCN(C[C@@H]2C[C@H]3C=C[C@H]2C3)CC1 [Compound 359]	25 to 100	++ (activity was measured to be from 1.0 μM to 5.0 μM)	25 to 100	+++ (activity was measured to be less than 1.0 μM)	25 to 100	++ (activity was measured to be from 1.0 μM to 5.0 μM)	–	–	–
COc1ccccc1C1(C#N)CCN(C2CCOCC2)CC1 [Compound 379]	–	+ (activity was measured to be greater than 5.0 μM)	–	+ (activity was measured to be greater than 5.0 μM)	–	+ (activity was measured to be greater than 5.0 μM)	< 25	< 25	< 25
COc1ccc(Cl)cc1C1(O)CCN(C2CCCCCC2)CC1 [Compound 380]	–	+ (activity was measured to be greater than 5.0 μM)	–	++ (activity was measured to be from 1.0 μM to 5.0 μM)	–	+ (activity was measured to be greater than 5.0 μM)	< 25	25 to 100	< 25
Cc1ccc(F)cc1C1CCN(C2C[C@H]3CC[C@H](C2)C3)CC1 (stereo partly drawn) [Compound 385]	–	+ (activity was measured to be greater than 5.0 μM)	–	+++ (activity was measured to be less than 1.0 μM)	–	++ (activity was measured to be from 1.0 μM to 5.0 μM)	< 25	25 to 100	25 to 100
COc1ccc(F)cc1C1CCN(C2CCC3CCC2C3)CC1 (stereo not drawn) [Compound 412]	–	++ (activity was measured to be from 1.0 μM to 5.0 μM)	–	+++ (activity was measured to be less than 1.0 μM)	–	+++ (activity was measured to be less than 1.0 μM)	< 25	25 to 100	25 to 100
COc1ccccc1C1(C#N)CCN(C2CC3CCC(C3)C2)CC1 (stereo not drawn) [Compound 421]	–	++ (activity was measured to be from 1.0 μM to 5.0 μM)	–	+++ (activity was measured to be less than 1.0 μM)	–	++ (activity was measured to be from 1.0 μM to 5.0 μM)	< 25	25 to 100	25 to 100
